The subject of this series is rodent lifetime carcinogenesis bioassay, tumor incidence TD50. Briefly: carcinogenic potency in animals, long-term in vivo studies, CPDB compilation (AID 1745844).

Activity calls are given as the source filed them. The rule behind the calls is not given here.

Take `Cn1cnc2nc(N)[nH]c(=O)c21`: the TD50 (rat, strain BR 46, both sexes, i.v., site: any site (literature study), lesion: malignant tumor, dosed 106 weeks, study length 126 weeks) was 8.24 mg/kg/day (inactive).

Turning to `Nc1ncn([C@@H]2O[C@H](CO)[C@@H](O)[C@H]2O)c(=O)n1`, the TD50 is 0.256 mg/kg/day (mouse, strain B6C3F1, females, i.p., site: all sites + multiple organs, lesion: lymphoma + granulocytic leukemia + granulocytic sarcoma, dosed 52 weeks, study length 81 weeks); 0.615 mg/kg/day (mouse, strain B6C3F1, females, i.p., site: all sites, lesion: lymphoma, dosed 52 weeks, study length 81 weeks); 0.219 mg/kg/day (mouse, strain B6C3F1, females, i.p., site: any site (literature study), lesion: several types, types named in the paper, dosed 52 weeks, study length 81 weeks); 0.52 mg/kg/day (mouse, strain B6C3F1, females, i.p., site: multiple organs, lesion: granulocytic leukemia + granulocytic sarcoma, dosed 52 weeks, study length 81 weeks); 1.05 mg/kg/day (mouse, strain B6C3F1, males, i.p., site: any site (literature study), lesion: several types, types named in the paper, dosed 52 weeks, study length 81 weeks); 15.7 mg/kg/day (mouse, strain B6C3F1, males, i.p., site: liver, lesion: hepatocellular adenoma + hepatocellular carcinoma + neoplastic nodule, dosed 52 weeks, study length 81 weeks). Also, the TD50 by setting is: (mouse, strain B6C3F1, males, i.p., site: lung, lesion: alveolar/bronchiolar adenoma + alveolar/bronchiolar carcinoma, dosed 52 weeks, study length 81 weeks) 61.4 mg/kg/day; (mouse, strain BALB/c, females, i.p., site: any site (literature study), lesion: one or several types, types not named, dosed 50 weeks, study length 72 weeks) 0.0364 mg/kg/day; (mouse, strain BALB/c, females, i.p., site: lymphoreticular system, lesion: several types, types named in the paper, dosed 50 weeks, study length 72 weeks) 0.0569 mg/kg/day; (mouse, strain BALB/c, females, i.p., site: mammary gland, lesion: adenocarcinoma, type B, dosed 50 weeks, study length 72 weeks) 0.618 mg/kg/day; (mouse, strain BALB/c, females, i.p., site: mammary gland, lesion: several types, types named in the paper, dosed 50 weeks, study length 72 weeks) 0.432 mg/kg/day; (mouse, strain BALB/c, females, i.p., site: skin, lesion: several types, types named in the paper, dosed 50 weeks, study length 72 weeks) 0.499 mg/kg/day. The TD50 is 0.0539 mg/kg/day (mouse, strain BALB/c, males, i.p., site: any site (literature study), lesion: one or several types, types not named, dosed 50 weeks, study length 67 weeks); 1.49 mg/kg/day (mouse, strain BALB/c, males, i.p., site: liver, lesion: hepatocellular adenoma, dosed 50 weeks, study length 67 weeks); 0.121 mg/kg/day (mouse, strain BALB/c, males, i.p., site: lung, lesion: adenoma, dosed 50 weeks, study length 67 weeks); 0.285 mg/kg/day (mouse, strain BALB/c, males, i.p., site: lymphoreticular system, lesion: several types, types named in the paper, dosed 50 weeks, study length 67 weeks); 0.98 mg/kg/day (mouse, strain BALB/c, males, i.p., site: skin, lesion: several types, types named in the paper, dosed 50 weeks, study length 67 weeks); 0.17 mg/kg/day (rat, strain Fischer 344, males, i.p., site: any site (literature study), lesion: one or several types, types not named, dosed 52 weeks, study length 52 weeks). Also, the TD50 (rat, strain Fischer 344, males, i.p., site: testis, lesion: one or several types, types not named, dosed 52 weeks, study length 52 weeks) was 0.222 mg/kg/day; the TD50 (rat, strain Sprague-Dawley, females, i.p., site: any site (literature study), lesion: several types, types named in the paper, dosed 34 weeks, study length 80 weeks) came out at 0.487 mg/kg/day; the TD50 (rat, strain Sprague-Dawley, males, i.p., site: any site (literature study), lesion: several types, types named in the paper, dosed 34 weeks, study length 80 weeks) is 0.328 mg/kg/day.

Regarding `C/C=C1/C[C@@H](C)[C@](O)(CO)C(=O)OCC2=CC[N+]3([O-])CC[C@@H](OC1=O)[C@@H]23` (some centres undefined), the TD50 was 1.27 mg/kg/day (rat, strain Wistar, females, in drinking water, site: liver, lesion: hepatoma, dosed 103 weeks, study length 104 weeks) and 0.499 mg/kg/day (rat, strain Wistar, males, in drinking water, site: liver, lesion: hepatoma, dosed 103 weeks, study length 104 weeks).

`O=NN1CCCCCC1`: the TD50 (mouse, strain BALB/c, females, by gavage, site: esophagus, lesion: squamous-cell papilloma, dosed 30 weeks, study length 49 weeks) turned out to be 19.7 mg/kg/day; the TD50 (mouse, strain BALB/c, females, by gavage, site: liver, lesion: several types, types named in the paper, dosed 30 weeks, study length 49 weeks) is 0.797 mg/kg/day; the TD50 (mouse, strain BALB/c, females, by gavage, site: lung, lesion: several types, types named in the paper, dosed 30 weeks, study length 49 weeks) was 7.44 mg/kg/day; the TD50 (mouse, strain BALB/c, females, by gavage, site: nasal mucosa, lesion: several types, types named in the paper, dosed 30 weeks, study length 49 weeks) was 4.5 mg/kg/day; the TD50 (mouse, strain Charles River CD1, females, by gavage, site: esophagus, lesion: squamous-cell papilloma, dosed 30 weeks, study length 62 weeks) amounted to 12.7 mg/kg/day; the TD50 (mouse, strain Charles River CD1, females, by gavage, site: forestomach, lesion: several types, types named in the paper, dosed 30 weeks, study length 62 weeks) is 5.65 mg/kg/day. The TD50 (mouse, strain Charles River CD1, females, by gavage, site: liver, lesion: several types, types named in the paper, dosed 30 weeks, study length 62 weeks) was 0.746 mg/kg/day; the TD50 (mouse, strain Charles River CD1, females, by gavage, site: lung, lesion: several types, types named in the paper, dosed 30 weeks, study length 62 weeks) is 2.71 mg/kg/day; the TD50 (mouse, strain Charles River CD1, females, by gavage, site: nasal mucosa, lesion: one or several types, types not named, dosed 30 weeks, study length 62 weeks) came to 26 mg/kg/day; the TD50 (mouse, strain NZO/BlGd, females, in drinking water, site: esophagus, lesion: several types, types named in the paper, dosed 32 weeks, study length 74 weeks) is 0.725 mg/kg/day; the TD50 (mouse, strain NZO/BlGd, females, in drinking water, site: liver, lesion: hepatocellular carcinoma, dosed 32 weeks, study length 74 weeks) is 3.21 mg/kg/day; the TD50 (mouse, strain NZO/BlGd, females, in drinking water, site: oropharynx, lesion: several types, types named in the paper, dosed 32 weeks, study length 74 weeks) is 6.37 mg/kg/day. Moreover, the TD50 was 4.05 mg/kg/day (mouse, strain NZO/BlGd, females, in drinking water, site: stomach, glandular, lesion: several types, types named in the paper, dosed 32 weeks, study length 74 weeks); 0.415 mg/kg/day (mouse, strain NZO/BlGd, females, in drinking water, site: stomach, squamous, lesion: several types, types named in the paper, dosed 32 weeks, study length 74 weeks); 0.313 mg/kg/day (mouse, strain NZO/BlGd, males, in drinking water, site: esophagus, lesion: several types, types named in the paper, dosed 32 weeks, study length 60 weeks); 8.03 mg/kg/day (mouse, strain NZO/BlGd, males, in drinking water, site: liver, lesion: hepatocellular carcinoma, dosed 32 weeks, study length 60 weeks); 1.93 mg/kg/day (mouse, strain NZO/BlGd, males, in drinking water, site: lung, lesion: several types, types named in the paper, dosed 32 weeks, study length 60 weeks); 1.41 mg/kg/day (mouse, strain NZO/BlGd, males, in drinking water, site: oropharynx, lesion: several types, types named in the paper, dosed 32 weeks, study length 60 weeks). For the same compound, the TD50 was 3.23 mg/kg/day (mouse, strain NZO/BlGd, males, in drinking water, site: stomach, glandular, lesion: several types, types named in the paper, dosed 32 weeks, study length 60 weeks); 0.448 mg/kg/day (mouse, strain NZO/BlGd, males, in drinking water, site: stomach, squamous, lesion: several types, types named in the paper, dosed 32 weeks, study length 60 weeks); 6.47 mg/kg/day (mouse, strain SENCAR, females, by gavage, site: esophagus, lesion: squamous-cell papilloma, dosed 30 weeks, study length 67 weeks); 2.25 mg/kg/day (mouse, strain SENCAR, females, by gavage, site: forestomach, lesion: several types, types named in the paper, dosed 30 weeks, study length 67 weeks); 1.92 mg/kg/day (mouse, strain SENCAR, females, by gavage, site: liver, lesion: several types, types named in the paper, dosed 30 weeks, study length 67 weeks); 0.783 mg/kg/day (mouse, strain SENCAR, females, by gavage, site: lung, lesion: several types, types named in the paper, dosed 30 weeks, study length 67 weeks). Besides, where the note is “mouse, strain SENCAR, females, by gavage, site: nasal mucosa, lesion: several types, types named in the paper, dosed 30 weeks, study length 67 weeks”, the TD50 is 6.47 mg/kg/day.

`O=C(O)c1ccc([N+](=O)[O-])cc1`: the TD50 (mouse, strain B6C3F1, females, in feed, site: any site (literature study), lesion: several types, types named in the paper, dosed 103 weeks, study length 104 weeks) was 3160 mg/kg/day (inactive); the TD50 (mouse, strain B6C3F1, females, in feed, site: lung, lesion: alveolar/bronchiolar adenoma + alveolar/bronchiolar carcinoma, dosed 103 weeks, study length 104 weeks) is 2330 mg/kg/day; the TD50 (mouse, strain B6C3F1, males, in feed, site: lung, lesion: alveolar/bronchiolar adenoma + alveolar/bronchiolar carcinoma, dosed 103 weeks, study length 104 weeks) is 4350 mg/kg/day; the TD50 (rat, strain Fischer 344, females, in feed, site: any site (literature study), lesion: several types, types named in the paper, dosed 103 weeks, study length 104 weeks) came out at 373 mg/kg/day; the TD50 (rat, strain Fischer 344, females, in feed, site: clitoral gland, lesion: adenoma + adenoma, bilateral + carcinoma + carcinoma, bilateral, dosed 103 weeks, study length 104 weeks) was 287 mg/kg/day; the TD50 (rat, strain Fischer 344, females, in feed, site: clitoral gland, lesion: adenoma + adenoma, bilateral, dosed 103 weeks, study length 104 weeks) was 439 mg/kg/day. The TD50 is, setting by setting: (rat, strain Fischer 344, females, in feed, site: clitoral gland, lesion: carcinoma + carcinoma, bilateral, dosed 103 weeks, study length 104 weeks) 1080 mg/kg/day; (rat, strain Fischer 344, females, in feed, site: uterus, lesion: endometrial stromal polyp + endometrial stromal sarcoma, dosed 103 weeks, study length 104 weeks) 197 mg/kg/day; (rat, strain Fischer 344, females, in feed, site: uterus, lesion: endometrial stromal polyp, dosed 103 weeks, study length 104 weeks) 220 mg/kg/day; (rat, strain Fischer 344, males, in feed, site: preputial gland, lesion: carcinoma + carcinoma, bilateral, dosed 103 weeks, study length 104 weeks) 926 mg/kg/day (inactive). Also, under “mouse, strain B6C3F1, males, in feed, site: any site (literature study), lesion: several types, types named in the paper, dosed 103 weeks, study length 104 weeks”, the carcinogen call was “negative (inactive)”.

On to `C=CCN(N)CC=C`, for which the TD50 is 332 mg/kg/day (mouse, strain Swiss albino, females, in drinking water, site: forestomach, lesion: squamous-cell papilloma, dosed 100 weeks, study length 100 weeks); 112 mg/kg/day (mouse, strain Swiss albino, females, in drinking water, site: lung, lesion: adenocarcinoma, dosed 100 weeks, study length 100 weeks); 37.8 mg/kg/day (mouse, strain Swiss albino, females, in drinking water, site: lung, lesion: adenoma, dosed 100 weeks, study length 100 weeks); 34.9 mg/kg/day (mouse, strain Swiss albino, females, in drinking water, site: lung, lesion: several types, types named in the paper, dosed 100 weeks, study length 100 weeks); 48.1 mg/kg/day (mouse, strain Swiss albino, males, in drinking water, site: forestomach, lesion: squamous-cell papilloma, dosed 93 weeks, study length 93 weeks); 723 mg/kg/day (inactive) (mouse, strain Swiss albino, males, in drinking water, site: liver, lesion: angiosarcoma, dosed 93 weeks, study length 93 weeks). For the same compound, the TD50 runs as follows: (mouse, strain Swiss albino, males, in drinking water, site: lung, lesion: adenocarcinoma, dosed 93 weeks, study length 93 weeks) 38.9 mg/kg/day; (mouse, strain Swiss albino, males, in drinking water, site: lung, lesion: adenoma, dosed 93 weeks, study length 93 weeks) 29.8 mg/kg/day; (mouse, strain Swiss albino, males, in drinking water, site: lung, lesion: several types, types named in the paper, dosed 93 weeks, study length 93 weeks) 25.7 mg/kg/day. Moreover, the carcinogen call (mouse, strain Swiss albino, females, in drinking water, site: liver, lesion: angioma, dosed 100 weeks, study length 100 weeks) is “negative (inactive)”; the carcinogen call (mouse, strain Swiss albino, females, in drinking water, site: liver, lesion: angiosarcoma, dosed 100 weeks, study length 100 weeks) was “negative (inactive)”; the carcinogen call (mouse, strain Swiss albino, males, in drinking water, site: liver, lesion: angioma, dosed 93 weeks, study length 93 weeks) is “negative (inactive)”.

Regarding `COc1cc(N)ccc1N=Nc1ccccc1`, the carcinogen call (mouse, strain B6C3F1, females, in feed, site: liver, lesion: one or several types, types not named, dosed 56 weeks, study length 56 weeks) is “negative (inactive)” and the carcinogen call (mouse, strain B6C3F1, males, in feed, site: liver, lesion: one or several types, types not named, dosed 56 weeks, study length 56 weeks) was “negative (inactive)”.
